From patent publication US20060069132A1, “Azolecarboxamide herbicides” (priority 2004, published 2006)

Key:
large crabgrass [1] = assay: Test A pre-/postemergence herbicide test; assay type: in vivo, Digitaria sanguinalis
How it was run: (§1)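 Visual injury scores on a 0–100 scale (100 = complete control) taken about ten days post-treatment in greenhouse against untreated controls; dash means no result. Treatments: preemergence soil spray and postemergence spray to runoff on one- to two-leaf plants 2 to 10 cm tall, surfactant-containing formulation.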

barnyardgrass [2] = assay: Test A pre-/postemergence herbicide test; assay type: in vivo, Echinochloa crus-galli
How it was run: as §1

giant foxtail [3] = assay: Test A pre-/postemergence herbicide test; assay type: in vivo, Setaria faberi
How it was run: as §1

giant foxtail [4] = assay: Test B pre-/postemergence herbicide test; assay type: in vivo, Setaria faberi
How it was run: (§2)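 Evaluation is visual, comparing treated with control plants on a scale where 0 means no effect and 100 means full control. Treatments were preemergence, or postemergence on seedlings 2–18 cm tall, and held 13–15 days in the greenhouse.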

redroot pigweed = assay: Test A pre-/postemergence herbicide test; assay type: in vivo, Amaranthus retroflexus
How it was run: as §1

Surinam grass = assay: Test B pre-/postemergence herbicide test; assay type: in vivo, Urochloa decumbens; settings: for Surinam Grass plant response rating: Preemergence, scale 0 to 100
How it was run: as §2

velvetleaf [5] = assay: Test B pre-/postemergence herbicide test; assay type: in vivo, Abutilon theophrasti; settings: for Velvetleaf plant response rating: Preemergence, scale 0 to 100
How it was run: as §2

morningglory [6] = assay: Test B pre-/postemergence herbicide test; assay type: in vivo, Ipomoea coccinea
How it was run: (§3)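 Species tested were Echinochloa crus-galli, Ipomoea coccinea, Xanthium strumarium and Oryza sativa, treated both before emergence and at the 1- to 4-leaf stage; rice and barnyardgrass were also tested under flooding at 2 leaves. Greenhouse incubation lasted 13–15 days before visual 0–100 scoring.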

corn = assay: Test B pre-/postemergence herbicide test; assay type: in vivo, Zea mays
How it was run: as §2

lambsquarters = assay: Test B pre-/postemergence herbicide test; assay type: in vivo, Chenopodium album
How it was run: as §2

velvetleaf [7] = assay: Test A pre-/postemergence herbicide test; assay type: in vivo, Abutilon theophrasti
How it was run: as §1

rice = assay: Test B flooded paddy test; assay type: in vivo, Oryza sativa; settings: 1000 g ai/ha, visual rating, scale 0 to 100 (0 no effect, 100 complete control), 13 to 15 days
How it was run: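 Each value is a visual 0–100 response rating taken against controls 13 to 15 days after treatment in the greenhouse. Plants received formulated chemical postemergence at the 1- to 4-leaf stage or, in flooded paddy, at the 2-leaf stage.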

[8] = test system: small flower umbrella sedge; assay: Test B flooded paddy test; assay type: in vivo, Cyperus difformis; settings: 1000 g ai/ha, visual rating, scale 0 to 100 (0 no effect, 100 complete control), 13 to 15 days
How it was run: (§4)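 Plants grow to 1- to 4-leaf stage (2–18 cm) for postemergence spraying, or to 2-leaf stage for the paddy test. Formulated compound is applied. Greenhouse holding lasts 13–15 days. Response is scored visually relative to controls, 0 no effect to 100 complete control; a dash means no result.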

cocklebur = assay: Test B pre-/postemergence herbicide test; assay type: in vivo, Xanthium strumarium; settings: for Plant response rating, Cocklebur: visual rating after 13 to 15 days
How it was run: as §3

barnyardgrass [9] = assay: Test B pre-/postemergence herbicide test; assay type: in vivo, Echinochloa crus-galli; settings: for Plant response rating, Barnyardgrass: visual rating after 13 to 15 days
How it was run: as §3

pigweed = assay: Test B pre-/postemergence herbicide test; assay type: in vivo, Amaranthus retroflexus; settings: for Pigweed plant response rating: Preemergence, scale 0 to 100
How it was run: as §2

barnyardgrass [10] = assay: Test B flooded paddy test; assay type: in vivo, Echinochloa crus-galli; settings: 1000 g ai/ha, visual rating, scale 0 to 100 (0 no effect, 100 complete control), 13 to 15 days
How it was run: as §4

morningglory [11] = assay: Test A pre-/postemergence herbicide test; assay type: in vivo, Ipomoea spp.
How it was run: as §1

wild oat = assay: Test B postemergence herbicide test; assay type: in vivo, Avena fatua; settings: Postemergence, scale 0 (no effect) to 100 (complete control); for Oat, Wild plant response rating: 125 g ai/ha; for Plant response rating, Oat, Wild: 500 g ai/ha, visual rating after 13 to 15 days
How it was run: as §4

large crabgrass [12] = assay: Test B pre-/postemergence herbicide test; assay type: in vivo, Digitaria sanguinalis; settings: for Plant response rating, Crabgrass, Large: visual rating after 13 to 15 days
How it was run: as §2

wheat = assay: Test B postemergence herbicide test; assay type: in vivo, Triticum aestivum; settings: Postemergence, 500 g ai/ha; visual rating after 13 to 15 days, scale 0 (no effect) to 100 (complete control)
How it was run: as §4

blackgrass = assay: Test B postemergence herbicide test; assay type: in vivo, Alopecurus myosuroides; settings: Postemergence, scale 0 (no effect) to 100 (complete control); for Blackgrass plant response rating: 125 g ai/ha; for Plant response rating, Blackgrass: 500 g ai/ha, visual rating after 13 to 15 days
How it was run: as §4

ducksalad = assay: Test B flooded paddy test; assay type: in vivo, Heteranthera limosa; settings: 1000 g ai/ha, visual rating, scale 0 to 100 (0 no effect, 100 complete control), 13 to 15 days
How it was run: as §4

[13] = Postemergence, 250 g ai/ha, 0 to 100 scale, 0 no effect, 100 complete control
[14] = Postemergence, 1000 g ai/ha, 0 to 100 scale, 0 no effect, 100 complete control
[15] = Preemergence, 1000 g ai/ha, visual rating, 0 to 100 scale (0 no effect, 100 complete control)
[16] = preemergence, 250 g ai/ha, visual injury, 0 to 100 scale (0 no effect, 100 complete control)
[17] = Postemergence, 125 g ai/ha, scale 0 (no effect) to 100 (complete control)
[18] = Postemergence, 500 g ai/ha, visual rating after 13 to 15 days, scale 0 (no effect) to 100 (complete control)
[19] = Preemergence, 500 g ai/ha, scale 0 to 100
[20] = preemergence, 125 g ai/ha, 0 to 100 scale, 0 is no effect, 100 is complete control
[21] = Postemergence, 500 g ai/ha, scale 0 (no effect) to 100 (complete control)
[22] = Postemergence, 500 g ai/ha, 0 to 100 scale, 0 no effect, 100 complete control
[23] = Postemergence, 2000 g ai/ha, 0 to 100 scale, 0 no effect, 100 complete control
[24] = Preemergence, 500 g ai/ha, visual rating, 0 to 100 scale (0 no effect, 100 complete control)
[25] = Preemergence, 2000 g ai/ha, 0 to 100 scale, 0 no effect, 100 complete control

## CCN(CC)C(=O)c1cccc(NC(=O)c2cc(C(C)(C)C)nn2CC(F)(F)F)c1 [Compound 32]
Large crabgrass [1]; [13]
  Crabgrass, Large plant response rating: 0
Large crabgrass [1]; [14]
  Plant response rating, Crabgrass, Large: 0
Large crabgrass [1]; [15]
  Crabgrass, Large plant response rating: 0
Large crabgrass [1]; [16]
  Crabgrass, Large plant response rating: 0
Barnyardgrass [2]; [13]
  Barnyardgrass plant response rating: 0
Barnyardgrass [2]; [14]
  Plant response rating, Barnyardgrass: 0
Barnyardgrass [2]; [15]
  Barnyardgrass plant response rating: 0
Barnyardgrass [2]; [16]
  Barnyardgrass plant response rating: 0
Giant foxtail [3]; [13]
  Foxtail, Giant plant response rating: 0
Giant foxtail [3]; [14]
  Plant response rating, Foxtail, Giant: 0
Giant foxtail [3]; [15]
  Foxtail, Giant plant response rating: 0
Giant foxtail [3]; [16]
  Foxtail, Giant plant response rating: 0
Giant foxtail [4]; [17]
  Foxtail, Giant plant response rating: 0
Giant foxtail [4]; [18]
  Plant response rating, Foxtail, Giant: 10
Giant foxtail [4]; [19]
  Foxtail, Giant plant response rating: 10
Giant foxtail [4]; [20]
  Plant response rating, Foxtail, Giant: 0
Redroot pigweed; [13]
  Pigweed plant response rating: 0
Redroot pigweed; [14]
  Plant response rating, Pigweed: 0
Redroot pigweed; [15]
  Pigweed plant response rating: 0
Redroot pigweed; [16]
  Pigweed plant response rating: 0
Surinam grass; [18]
  Plant response rating, Surinam Grass: 10
Surinam grass; 500 g ai/ha
  Surinam Grass plant response rating: 30
Surinam grass; [20]
  Plant response rating, Surinam Grass: 0
Velvetleaf [5]; [18]
  Plant response rating, Velvetleaf: 30
Velvetleaf [5]; 500 g ai/ha
  Velvetleaf plant response rating: 70
Velvetleaf [5]; [20]
  Plant response rating, Velvetleaf: 0
Morningglory [6]; [17]
  Morningglory plant response rating: 0
Morningglory [6]; [18]
  Plant response rating, Morningglory: 0
Morningglory [6]; [19]
  Morningglory plant response rating: 60
Morningglory [6]; [20]
  Plant response rating, Morningglory: 50
corn; [17]
  Corn plant response rating: 10
corn; [18]
  Plant response rating, Corn: 10
corn; [19]
  Corn plant response rating: 0
lambsquarters; [17]
  Lambsquarters plant response rating: 70
lambsquarters; [18]
  Plant response rating, Lambsquarters: 90
lambsquarters; [19]
  Lambsquarters plant response rating: 100
lambsquarters; [20]
  Plant response rating, Lambsquarters: 100
Velvetleaf [7]; [13]
  Velvetleaf plant response rating: 0
Velvetleaf [7]; [14]
  Plant response rating, Velvetleaf: 0
Velvetleaf [7]; [15]
  Velvetleaf plant response rating: 0
Velvetleaf [7]; [16]
  Velvetleaf plant response rating: 0
rice
  Rice plant response rating: 0
[8]
  Sedge, Umbrella plant response rating: 20
cocklebur; [17]
  Cocklebur plant response rating: 10
cocklebur; [21]
  Plant response rating, Cocklebur: 20
cocklebur; [19]
  Cocklebur plant response rating: 0
Barnyardgrass [9]; [17]
  Barnyardgrass plant response rating: 0
Barnyardgrass [9]; [21]
  Plant response rating, Barnyardgrass: 10
Barnyardgrass [9]; [19]
  Barnyardgrass plant response rating: 60
pigweed; [18]
  Plant response rating, Pigweed: 50
pigweed; 500 g ai/ha
  Pigweed plant response rating: 70
pigweed; [20]
  Plant response rating, Pigweed: 0
Barnyardgrass [10]
  Barnyardgrass plant response rating: 0
Morningglory [11]; [13]
  Morningglory plant response rating: 0
Morningglory [11]; [14]
  Plant response rating, Morningglory: 0
Morningglory [11]; [15]
  Morningglory plant response rating: 0
Morningglory [11]; [16]
  Morningglory plant response rating: 0
Wild oat
  Oat, Wild plant response rating: 10
  Plant response rating, Oat, Wild: 20
Large crabgrass [12]; [17]
  Crabgrass, Large plant response rating: 0
Large crabgrass [12]; [21]
  Plant response rating, Crabgrass, Large: 10
Large crabgrass [12]; [19]
  Crabgrass, Large plant response rating: 60
wheat
  Plant response rating, Wheat: 10
blackgrass
  Blackgrass plant response rating: 0
  Plant response rating, Blackgrass: 0
ducksalad
  Ducksalad plant response rating: 0

## CCCCn1nc(C(C)(C)C)cc1C(=O)Nc1cccc(C(=O)N(CC)CC)c1 [Compound 40]
Large crabgrass [1]; [22]
  Plant response rating, Crabgrass, Large: 15
Large crabgrass [1]; [23]
  Plant response rating, Crabgrass, Large: 0
Large crabgrass [1]; [24]
  Crabgrass, Large plant response rating: 5
Large crabgrass [1]; [25]
  Crabgrass, Large plant response rating: 15
Barnyardgrass [2]; [22]
  Plant response rating, Barnyardgrass: 0
Barnyardgrass [2]; [23]
  Plant response rating, Barnyardgrass: 0
Barnyardgrass [2]; [24]
  Barnyardgrass plant response rating: 0
Barnyardgrass [2]; [25]
  Barnyardgrass plant response rating: 15
Giant foxtail [3]; [22]
  Plant response rating, Foxtail, Giant: 0
Giant foxtail [3]; [23]
  Plant response rating, Foxtail, Giant: 0
Giant foxtail [3]; [24]
  Foxtail, Giant plant response rating: 0
Giant foxtail [3]; [25]
  Foxtail, Giant plant response rating: 5
Giant foxtail [4]; [17]
  Foxtail, Giant plant response rating: 0
Giant foxtail [4]; [18]
  Plant response rating, Foxtail, Giant: 20
Giant foxtail [4]; [19]
  Foxtail, Giant plant response rating: 10
Giant foxtail [4]; [20]
  Plant response rating, Foxtail, Giant: 0
Redroot pigweed; [22]
  Plant response rating, Pigweed: 0
Redroot pigweed; [23]
  Plant response rating, Pigweed: 0
Redroot pigweed; [24]
  Pigweed plant response rating: 0
Redroot pigweed; [25]
  Pigweed plant response rating: 15
Surinam grass; [18]
  Plant response rating, Surinam Grass: 20
Surinam grass; 500 g ai/ha
  Surinam Grass plant response rating: 10
Surinam grass; [20]
  Plant response rating, Surinam Grass: 0
Velvetleaf [5]; [18]
  Plant response rating, Velvetleaf: 20
Velvetleaf [5]; 500 g ai/ha
  Velvetleaf plant response rating: 10
Velvetleaf [5]; [20]
  Plant response rating, Velvetleaf: 0
Morningglory [6]; [19]
  Morningglory plant response rating: 10
corn; [19]
  Corn plant response rating: 0
lambsquarters; [17]
  Lambsquarters plant response rating: 40
lambsquarters; [18]
  Plant response rating, Lambsquarters: 70
lambsquarters; [19]
  Lambsquarters plant response rating: 80
lambsquarters; [20]
  Plant response rating, Lambsquarters: 40
Velvetleaf [7]; [22]
  Plant response rating, Velvetleaf: 0
Velvetleaf [7]; [23]
  Plant response rating, Velvetleaf: 0
Velvetleaf [7]; [24]
  Velvetleaf plant response rating: 5
Velvetleaf [7]; [25]
  Velvetleaf plant response rating: 15
rice
  Rice plant response rating: 0
[8]
  Sedge, Umbrella plant response rating: 30
cocklebur; [17]
  Cocklebur plant response rating: 10
cocklebur; [21]
  Plant response rating, Cocklebur: 50
cocklebur; [19]
  Cocklebur plant response rating: 0
Barnyardgrass [9]; [17]
  Barnyardgrass plant response rating: 10
Barnyardgrass [9]; [21]
  Plant response rating, Barnyardgrass: 10
Barnyardgrass [9]; [19]
  Barnyardgrass plant response rating: 40
pigweed; [18]
  Plant response rating, Pigweed: 60
pigweed; 500 g ai/ha
  Pigweed plant response rating: 60
pigweed; [20]
  Plant response rating, Pigweed: 30
Barnyardgrass [10]
  Barnyardgrass plant response rating: 0
Morningglory [11]; [22]
  Plant response rating, Morningglory: 0
Morningglory [11]; [23]
  Plant response rating, Morningglory: 0
Morningglory [11]; [24]
  Morningglory plant response rating: 5
Morningglory [11]; [25]
  Morningglory plant response rating: 10
Wild oat
  Oat, Wild plant response rating: 0
  Plant response rating, Oat, Wild: 10
Large crabgrass [12]; [17]
  Crabgrass, Large plant response rating: 10
Large crabgrass [12]; [21]
  Plant response rating, Crabgrass, Large: 20
Large crabgrass [12]; [19]
  Crabgrass, Large plant response rating: 70
wheat
  Plant response rating, Wheat: 30
blackgrass
  Blackgrass plant response rating: 10
  Plant response rating, Blackgrass: 20
ducksalad
  Ducksalad plant response rating: 0
